Results as given in PMC9325274, “In Vitro and In Silico Investigation of Diterpenoid Alkaloids Isolated from Delphinium chitralense” (Molecules, 2022).
Where two headings read alike, the source gives them in different places.

Experiments:
[1] = target: T1, AChE (Electric-eel EC 3.1.1.7) (Electrophorus electricus, UniProt O42275); experiment: biochemical
T1 construct: purchased Sigma-Aldrich (St. Louis, MO, USA)

[2] = target: T2, BChE (horse serum EC 3.1.1.8) (Equus caballus, UniProt P81908); experiment: biochemical
T2 construct: purchased Sigma-Aldrich (St. Louis, MO, USA); host or cells: horse serum
T2 sequence (P81908 whole entry): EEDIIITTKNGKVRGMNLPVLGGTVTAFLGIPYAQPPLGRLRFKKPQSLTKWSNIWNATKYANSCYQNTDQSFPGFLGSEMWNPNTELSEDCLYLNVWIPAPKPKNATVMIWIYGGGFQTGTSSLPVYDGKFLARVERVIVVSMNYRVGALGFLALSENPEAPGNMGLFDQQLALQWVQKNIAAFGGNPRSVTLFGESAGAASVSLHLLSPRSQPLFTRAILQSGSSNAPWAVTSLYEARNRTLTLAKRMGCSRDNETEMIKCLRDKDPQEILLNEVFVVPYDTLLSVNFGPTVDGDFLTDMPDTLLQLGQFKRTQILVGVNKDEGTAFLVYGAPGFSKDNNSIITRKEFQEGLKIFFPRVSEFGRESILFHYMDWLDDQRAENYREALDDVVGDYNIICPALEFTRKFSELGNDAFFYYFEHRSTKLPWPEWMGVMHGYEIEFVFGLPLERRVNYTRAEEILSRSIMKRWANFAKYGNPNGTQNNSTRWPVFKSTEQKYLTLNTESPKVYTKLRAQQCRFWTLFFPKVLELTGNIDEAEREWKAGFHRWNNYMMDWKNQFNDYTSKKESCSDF

[3] = read-out: AChE ± SEM (IC50); Electric-eel AChE; SEM of five assays
[4] = read-out: BChE ± SEM (IC50), SEM of five assays

T1 sequence (O42275 24-633): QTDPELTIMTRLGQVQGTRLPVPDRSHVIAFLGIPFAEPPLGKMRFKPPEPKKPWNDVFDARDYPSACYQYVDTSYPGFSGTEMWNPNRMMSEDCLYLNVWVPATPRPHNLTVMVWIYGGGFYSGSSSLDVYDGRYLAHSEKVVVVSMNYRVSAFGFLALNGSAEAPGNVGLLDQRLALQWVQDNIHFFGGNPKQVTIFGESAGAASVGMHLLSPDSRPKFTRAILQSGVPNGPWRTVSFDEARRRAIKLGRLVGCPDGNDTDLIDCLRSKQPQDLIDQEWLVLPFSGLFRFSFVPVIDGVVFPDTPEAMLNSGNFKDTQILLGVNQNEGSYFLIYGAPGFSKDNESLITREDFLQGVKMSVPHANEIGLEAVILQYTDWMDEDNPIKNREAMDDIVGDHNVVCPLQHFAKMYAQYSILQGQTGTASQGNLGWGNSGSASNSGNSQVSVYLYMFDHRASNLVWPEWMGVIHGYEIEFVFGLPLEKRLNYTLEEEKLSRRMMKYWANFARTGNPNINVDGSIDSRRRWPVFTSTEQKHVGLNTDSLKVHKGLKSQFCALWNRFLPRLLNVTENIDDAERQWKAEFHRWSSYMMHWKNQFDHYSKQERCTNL

| SMILES | IC50 [1, 3] | Type of Inhibition ([1]; stated for inhibition of AChE and BChE; listed as Chitralinine-C) | IC50 [2, 4] | IC50 ([1]; Electric-eel AChE; SEM of five assays; read-out: AChE ± SEM (IC50)) | Type of Inhibition ([1]; stated for inhibition of AChE and BChE; listed as Chitralinine A) | IC50 ([2]; SEM of five assays, read-out: BChE ± SEM (IC50)) | Type of Inhibition ([1]; stated for inhibition of AChE and BChE; listed as Chitralinine B) |
| --- | --- | --- | --- | --- | --- | --- | --- |
| C=C1CC23CC(=O)C4C5(C)CC(O)C(O)C46C(C2CC1(O)C(O)C36O)N(C)C5O (stereo not drawn) [Compound 3, 1α, 2, 9,11,12,19β-hexahydoxy atisinone] | 12.1 ± 0.82 µM | Competitive | 26.35 ± 0.06 µM | – | – | – | – |
| C=C1CC23CC(=O)C4C5(C)CC(O)C(O)C46C(C2C(=O)C1CC36O)N(C)C5 (stereo not drawn) [Compound 1, 9β-hydroxy hetidine] | – | – | – | 13.9 ± 0.35 µM | Competitive | 28.2 ± 0.92 µM | – |
| C=C1CC23CC(=O)C4C56C(C2C(=O)C1(O)C(O)C35O)N(C)C(O)[C@]4(C)CC(O)[C@@H]6O (stereo partly drawn) [Compound 2, 9,11,12,19β- tetrahydoxy hetidine] | 11.64 ± 0.08 µM | – | 24.3 ± 0.33 µM | – | – | – | Competitive |
